Results on 14 molecules are retold here after patent US20220213070A1, “COMPOUNDS INHIBITING TDG ACTIVITY” (EPITAS BIOSCIENCES (SHANGHAI) CO., LTD., priority 2019, published 2022).

In assay [1] the target is T1, TDG (Homo sapiens, UniProt Q13569). The assay is described as follows: Inhibition of TDG mismatch repair activity (fluorescent G·U double-stranded DNA probe T1-T2). The assay is classed as biochemical. To be noted: TDG 100 nM/L, preincubated with compound 37° C. 30 minutes; probe 30 nM; read-out: Inhibitory activity on TDG mismatch repair IC50. The text has this:
14.1 Experimental Determination of Compound's Inhibitory Rate on TDG Mismatch Repair Activity
(1) A double-stranded DNA probe T1-T2 containing uracil bases was synthesized. The nucleotide sequence of the T1 chain was: 5′-FAM-TAAUGTGAATGGAGCTGAAAT-biotin-3′; The nucleotide sequence of the T2 chain was 5′-ATTTCAGCTCCATTCACGTTA-3′. Using PCR annealing program, the T1 strand and T2 strand were complementary to form a double-stranded DNA probe T1-T2.
(2) The reaction system and steps for each well of a 96-well plate were as follows: a. TDG (100 nM/L) was mixed with different concentrations of compounds, and the mixture was incubated at 37° C. for 30 minutes. The composition of the reaction buffer was: 20 mM HEPES pH7.5, 100 mM NaCl, 0.2 mM EDTA, 2.5 mM MgCl2; b. The double-stranded DNA probe T1-T2 was added to the mixture to obtain a final volume of 100 μL, with a concentration of 30 nM, and the mixture was incubated at 25° C. for 30 min; c. 1 μL of streptavidin magnetic beads were added to the reaction solution and fully bound the biotin-labeled DNA for 1 hour; d. NaOH was added to the reaction solution to a final concentration of 200 mM, and the mixture was incubated at room temperature for 30 minutes; e. Under the action of a magnetic stand the streptavidin magnetic beads were adsorbed to the tube wall, the supernatant was transferred to a new 96-well plate, and placed in a Tecan microplate reader for fluorescence measurement. The parameter settings were: excitation wavelength 485 nm; emission wavelength 520 nm. A linear curve between fluorescence intensity and TDG concentration was constructed, R^2=0.9968, and the linear range was 0-50 nM/L;
According to the biological method described in this example, the selected compounds of the present invention were analyzed, and the results are shown in Table 1. Among them, “++” in Table 1 refers to the inhibitory activity for TDG mismatch repair with IC50≤5 μM; “+” refers to the inhibitory activity for TDG mismatch repair with IC50>5 μM.

For assay [2], the system named is Lung cancer cell line Calu-1. The assay is described as follows: Inhibition of the growth of Calu-1 cells (CellTiter-Glo, 72 hours). It is filed as cell-based. To be noted: Homo sapiens, 72 hours of culturing, read-out: Inhibitory activity on alu-1 cell growth IC50. The procedure:
14.2 Experimental Determination of Compound's Inhibitory Rate on the Growth of Calu-1 Cells
Lung cancer cell line Calu-1 was cultured in 90% McCoy's 5A medium (BI, 01-075-1ACS)+10% fetal bovine serum (Gibco, 10270106), placed in a CO2 incubator (37° C., 5% CO2, 95% air) for culturing. Calu-1 cells were digested with trypsin (Gibco, 12604-021) and seeded in a 384-well plate at a density of 500 cells per well. The medium was 50 μL and it was cultured overnight at 37° C. in an incubator. On the next day, different concentrations of test compounds were added, and the final concentration of DMSO was 0.1%. After 72 hours of culturing, the cells were taken out for test. The cell culture medium from the 384-well plate to be tested was removed, and fresh culture medium premixed with CTG was immediately added: the ratio of the culture medium to CellTiter-Glo® 2.0 reagent (Promega, G9243) was 2:1, 30 ul was added to each well. The plate was shaken at room temperature for 20 minutes, and then a multi-function plate reader (TECAN, Infinite 200 Pro) was used according to the reagent instructions to determine the cell survival.
According to the biological method described in this example, the selected compounds of the present invention were analyzed, and the results are shown in Table 1. Among them, “++” in Table 1 refers to the inhibitory activity on the growth of calu-1 cells with IC50≤5 μM; “+” refers to the inhibitory activity on the growth of calu-1 cells with IC50>5 μM.
For orientation: ATP-based viability assays read luminescence as a measure of living cells.

In assay [3] the target is T1, TDG. Kind of assay: TDG inhibitory activity of compounds in cells (caC-cmv-firefly luciferase reporter, HEK 293T TDG KO cells transfected with pCDNA4-TDG). The assay is classed as cell-based. To be noted: read-out: Inhibition rate on TDG activity. As for the experimental part: Experimental Determination of TDG Inhibitory Activity of Compounds in Cells
The operation steps of this example are as follows:
(1) Preparation of Methylation Reporter Plasmid:
(a) SAM with a stock solution concentration of 32 mM was diluted with ultrapure water to 1600 μM;
(b) The reaction system was prepared according to the following ratio: 30 μl ultrapure water, 5 μl 10×NEBuffer 2, 5 μl diluted SAM, 1 μg pCpGL-CMV-firefly plasmid, 1 μl SssI methylase (4 U/μl); 50 μl in total, the reaction was carried out at 37° C. for 2 hours;
(c) The mixture was heated at 65° C. for 20 minutes. Then 0.2% SDS was added, the reaction was carried out at 80° C. for 10 min; and then 1 μl Proteinase K was added, the reaction was carried out at 50° C. for 1 h;
(d) The methylated plasmid was recovered with Dr. GenTLE® sedimentation aid (TAKARA).
(2) Preparation of 5fC/5caC pCpGL-CMV-Firefly Reporter Plasmid
(a) The following 10× reaction system was prepared:
(b) The reaction system was prepared according to the following ratio:
(c) The reaction was carried out at 37° C. for one hour;
(d) 24 μg Tet1 protein was added for the second time and the reaction was continued for one hour;
(e) SDS was added to a final concentration of 0.5%, 80° C., 10 minutes, then 1 μl Proteinase K was added, 55° C. overnight.
(f) The treated caC-cmv-firefly plasmid was recovered with Dr. GenTLE® sedimentation aid (TAKARA) and was quantified.
(3) Using the Luciferase Activity Assay Method to Detect the Inhibitory Rate of Small Molecule Compounds on Intracellular TDG Enzyme Activity
In a 96-well plate, the reaction system and operation flow of each well were as follows:
(a) 1 ng caC-cmv-firefly, Ing pCpGL-CMV-Relina and 150 ng pCDNA4-TDG or 150 ng pCDNA4-myc plasmid, were diluted to 75 ul Opti-MEM, mixed well and allowed to stand still for 5 minutes;
(b) 2 ul transfection reagent (Hieff Trans™ Liposomal transfection Reagent (0.5 ul/well, YEAEEN, Cat #40802)) was diluted in 100 ul Opti-MEM, mixed well and allowed to stand still for 5 minutes;
(c) 75 ul of (a) and (b) were mixed respectively, and allowed to stand still at room temperature for 20 minutes;
(d) HEK 293T TDG KO cells were digested with trypsin, the cells were collected and counted, and the suspension cell concentration was adjusted to 4×10^5/ml;
(e) 50 ul of the mixture (c) was added to each well, and at the same time 100 ul of the diluted cell suspension was added to the same well, and they were mixed well.
(f) After the cells adhering to the wall, different concentrations of small molecule compounds to be tested were added to each well.
(g) Incubation was performed in a 37° C. CO2 incubator for 72 hours. The supernatant was removed and the cells were quickly freezed at −80° C.
(h) Before detecting the luciferase activity, the cells to be tested were removed from −80° C. and allowed to stand still at room temperature for 30 minutes. Following the instructions of Dual-Glo® Luciferase Reagent (PROMEGA), the firefly fluorescence value and Renilla fluorescence value of each well were detected.
(i) The firefly fluorescence value was divided with the Renilla fluorescence value of each well; 96-well plate Z′ and experimental window was calculated by the ratio of transfected caC-cmv-firefly, pCpGL-CMV-Relina, pCDNA4-TDG plasmid mixture plus DMSO experimental group to transfected caC-cmv-firefly, pCpGL-CMV-Relina, pCDNA4-myc plasmid mixture plus DMSO experimental group, and the relative enzyme activity inhibition rate of each compound was calculated.
According to the biological method described in this example, the selected compounds of the present invention were analyzed, and the results are shown in Table 2. Among them, “+” in Table 2 refers to the compound's TDG inhibitory activity at a concentration of 10 μM≤25%; “++” refers to the compound's TDG inhibitory activity at a concentration of 10 μM>25%.
In general terms: A reporter such as luciferase makes a cellular process visible.

T1 sequence (Q13569 whole entry): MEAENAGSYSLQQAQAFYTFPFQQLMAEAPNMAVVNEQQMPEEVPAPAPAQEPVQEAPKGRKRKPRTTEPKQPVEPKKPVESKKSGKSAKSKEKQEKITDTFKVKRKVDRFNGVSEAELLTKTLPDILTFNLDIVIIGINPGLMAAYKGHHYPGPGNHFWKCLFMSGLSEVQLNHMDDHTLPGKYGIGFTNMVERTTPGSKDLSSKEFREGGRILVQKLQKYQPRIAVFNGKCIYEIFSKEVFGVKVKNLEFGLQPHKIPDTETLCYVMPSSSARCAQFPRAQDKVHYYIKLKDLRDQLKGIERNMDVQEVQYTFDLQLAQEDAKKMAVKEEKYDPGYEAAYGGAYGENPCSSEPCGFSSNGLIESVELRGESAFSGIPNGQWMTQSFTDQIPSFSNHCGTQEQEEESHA

Broadly, the IC50 is the concentration that inhibits the measured activity by half. By inhibition is commonly meant the relative decrease from the control value, in per cent. For `O=C(CCN1Cc2ccccc2C1)c1ccc(O)c(O)c1` [Compound 39, 1-(3,4-dihydroxyphenyl)-3-(isoindolin-2-yl)propan-1-one], the 50% inhibitory concentration (IC50) in assay [1] and in assay [2] was above 5 µM in each case. Besides, the inhibition at 10 µM in assay [3] is below 25%.

Consider `OC(CCN1Cc2ccccc2C1)c1ccc2c(c1)OCCO2` (stereo not drawn) [Compound 10, 1-(2,3-dihydrobenzo[b][1,4]dioxin-6-yl)-3-(isoindolin-2-yl)propan-1-ol], for which the IC50 in assay [1] and in assay [2] was above 5 µM each time. In assay [3], the inhibition at 10 µM was below 25%.

In the case of `O=C(CCN1CC2C=CC(c3ccncc3)=CC2C1)c1ccc2c(c1)OCCO2` (stereo not drawn) [Compound 41, 1-(2,3-dihydrobenzo[b][1,4]dioxin-6-yl)-3-(5-(pyridin-4-yl)-1,3,3a,7αtetrahydro-2H-isoindolepyridin-2-yl)propan-1-one], the half-maximal inhibitory concentration (IC50) in assay [1] and in assay [2] was above 5 µM throughout. For the same molecule, in assay [3], the inhibition at 10 µM is below 25%.

Regarding `O=C(CCN1CCC(c2ccc(F)c(O)c2)C1)c1ccc2c(c1)OCCO2` (stereo not drawn) [Compound 52, 1-(2,3-dihydrobenzo[b][1,4]dioxin-6-yl)-3-(3-(4-fluoro-3-hydroxyphenyl)pyrrolidine-1-yl)propan-1-one], the 50% inhibitory concentration (IC50) in assay [1] and in assay [2] was at most 5 µM each time. Further, the inhibition at 10 µM in assay [3] was below 25%.

Turning to `CC(=O)c1ccc2c(c1)CN(CCC(=O)c1ccc3c(c1)OCCO3)C2` [Compound 7, 3-(5-acetylisoindolin-2-yl)-1-(2,3-dihydrobenzo[b][1,4]dioxin-6-yl)propan-1-one], the concentration for half-maximal inhibition (IC50) in assay [1] is at most 5 µM; in assay [2] it was above 5 µM. The inhibition at 10 µM in assay [3] is below 25%.

On to `O=C(CCN1Cc2ccccc2C1)c1ccc2c(c1)OCCO2` [Compound 1, 1-(2,3-dihydrobenzo[b][1,4]dioxin-6-yl)-3-(isoindolin-2-yl)propan-1-one], for which the half-inhibitory concentration (IC50) in assay [1] and in assay [2] was at most 5 µM each time. Also, the inhibition at 10 µM in assay [3] is above 25%.

For the molecule `O=C(CCN1CCN(c2ncccn2)CC1)c1ccc2c(c1)OCCO2` [Compound 19, 1-(2,3-dihydrobenzo[b][1,4]dioxin-6-yl)-3-(4-(pyrimidin-2-yl)piperazin-1-yl)propan-1-one], the IC50 is above 5 µM in assay [1] and at most 5 µM in assay [2]. Also, the inhibition at 10 µM in assay [3] is below 25%.

For the molecule `O=C(CCN1CCC(c2ccc(F)cc2O)C1)c1ccc2c(c1)OCCO2` (stereo not drawn) [Compound 51, 1-(2,3-dihydrobenzo[b][1,4]dioxin-6-yl)-3-(3-(4-fluoro-2-hydroxyphenyl)pyrrolidine-1-yl)propan-1-one], the IC50 in assay [1] and in assay [2] was above 5 µM each time. For the same molecule, the inhibition at 10 µM in assay [3] was below 25%.

As to `O=C1CCN(CCC(=O)c2ccc3c(c2)OCCO3)C1` [Compound 17, 1-(3-(2,3-dihydrobenzo[b][1,4]dioxin-6-yl)-3-oxopropyl)pyrrolidin-3-one], the IC50 in assay [1] was at most 5 µM; in assay [2], above 5 µM. The inhibition at 10 µM in assay [3] is below 25%.

Turning to `CC(C)(C)OC(=O)NCC1(O)CN(CCC(=O)c2ccc3c(c2)OCCO3)C1` [Compound 23, tert-butyl ((1-(3-(2,3-dihydrobenzo[b][1,4]dioxin-6-yl)-3-oxopropyl)-3-hydroxyazetidin-3-yl)methyl)carbamate], the 50% inhibitory concentration (IC50) in assay [1] and in assay [2] was above 5 µM each time. Besides, in assay [3], the inhibition at 10 µM was below 25%.

Turning to `O=C(CN1Cc2ccccc2C1)c1ccc2c(c1)OCCO2` [Compound 32, 1-(2,3-dihydrobenzo[b][1,4]dioxin-6-yl)-2-(isoindolin-2-yl)ethan-1-one], the concentration for half-maximal inhibition (IC50) in assay [1] and in assay [2] was above 5 µM each time. In addition, the inhibition at 10 µM in assay [3] is below 25%.

As to `O=C(CCN1C(=O)c2ccccc2C1=O)c1ccc2c(c1)OCCO2` [Compound 12, 2-(3-(2,3-dihydrobenzo[b][1,4]dioxin-6-yl)-3-oxopropyl)isoindole-1,3-dione], the IC50 in assay [1] and in assay [2] was above 5 µM in each case. Moreover, in assay [3], the inhibition at 10 µM was below 25%.

Take `O=C(CCN1CCC(c2ccc(C(F)(F)F)cc2)C1)c1ccc2c(c1)OCCO2` (stereo not drawn) [Compound 45, 1-(2,3-dihydrobenzo[b][1,4]dioxin-6-yl)-3-(3-(4-(trifluoromethyl)phenyl)pyrrolidine-1-yl)propan-1-one]: the concentration for half-maximal inhibition (IC50) in assay [1] was above 5 µM; in assay [2], at most 5 µM. Besides, the inhibition at 10 µM in assay [3] was below 25%.

With `O=C(CCN1Cc2ccc(Cl)cc2C1)c1ccc2c(c1)OCCO2` [Compound 4, 3-(5-chloroisoindolin-2-yl)-1-(2,3-dihydrobenzo[b][1,4]dioxin-6-yl)propan-1-one], the IC50 in assay [1] is at most 5 µM; in assay [2] it was above 5 µM. Besides, in assay [3], the inhibition at 10 µM was below 25%.
